From PMC5401710, “Peptides with 6-Aminohexanoic Acid: Synthesis and Evaluation as Plasmin Inhibitors” (International Journal of Peptide Research and Therapeutics, 2016)
Where two headings read alike, the source gives them in different places. Non-standard residues stand in square brackets, D forms with d. Residues, ends and D or L forms follow the SMILES beside them. Ahx = NCCCCCC(=O)O

Legend:
[1] = target: T1, plasmin (Homo sapiens, UniProt P00747); details: ref Midura-Nowaczek et al. [2008]; cited from earlier work
T1 construct: The amino-terminal heavy chain of PL consists of five kringle domains; The C-terminal light chain of plasmin is a typical serine protease (SP); purchased Chromogenix (Milano, Italy)

[2] = target: T2, tPA (Homo sapiens, UniProt P00750); assay: Amidolytic activity of t-PA (substrate S-2288); format: biochemical; details: amidolytic activity, S-2288, tris buffer pH 8.4
T2 construct: purchased Boehringer Ingelheim GmbH (Ingelheim, Germany)
Description: (§1) Determination of amidolytic activity was performed as previously described by (Okada et al. [1988]). Buffer and 0.1 ml of enzyme solution was added to 0.2 ml of examined compound dissolved in 0.15 M NaCl (1–15) (as control 0.15 M NaCl). The buffer and the enzyme solution included: • tris buffer—0.6 ml (pH 8.8), enzyme: urokinase (50 units/ml), synthetic substrate: S-2444 (0.1 ml, 3 mM); • tris buffer—0.5 ml (pH 8.4), enzyme: thrombin (1 units/ml), synthetic substrate: S-2238 (0.2 ml, 0.75 mM); • tris buffer—0.5 ml (pH 7.4), enzyme: plasmin (0.4 units/ml), synthetic substrate: S-2251 (0.2 ml, 3 mM); • […]—0.5 ml (pH 7.5), enzyme: trypsin (0.4 units/ml), synthetic substrate: Bzl-L-Arg–pNA.HCl (0.2 ml, 8 mM); • tris buffer—0.6 ml (pH 9.0), enzyme: kallikrein (3 units/ml), synthetic substrate: S-2266 (0.1 ml, 75 mM); • tris buffer—0.6 ml (pH 8.4), enzyme: t-PA ([…]), synthetic substrate: S-2288 (0.1 ml, 10 mM).
(§2) IC50 values were determined (IC50, Inhibitor Concentration, the concentration at which enzyme activity is inhibited by 50 %). Our results were compared with the 6-aminohexanoic acid.

[3] = target: T3, uPA (Homo sapiens, UniProt P00749); assay: Amidolytic activity of urokinase (substrate S-2444); format: biochemical; details: amidolytic activity, S-2444, tris buffer pH 8.8
T3 construct: purchased Sigma (Schnelldorf, Germany)
Description: as §1, §2

[4] = target: T1, plasmin; assay: Amidolytic activity of plasmin (substrate S-2251); format: biochemical; details: amidolytic activity, S-2251, tris buffer pH 7.4
Description: as §1, §2

[5] = target: T4, thrombin (Bos taurus, UniProt P00735); assay: Amidolytic activity of thrombin (substrate S-2238); format: biochemical; details: amidolytic activity, S-2238, tris buffer pH 8.4
T4 construct: purchased Lubelska Wytwórnia Szczepionek (Lublin, Poland)
Description: as §1, §2

[6] = test system: trypsin; assay: Amidolytic activity of trypsin (substrate Bzl-L-Arg-pNA); format: biochemical; details: amidolytic activity, Bzl-L-Arg-pNA, borane buffer pH 7.5
Description: as §1, §2

[7] = test system: fibrinolysis in whole blood; assay: Thromboelastometric (ROTEM) analysis of clot formation and fibrinolysis in whole blood; design: species or system human; details: for clotting time (CT, coagulation time) / lysis of the clot in 45 min (from LI45): human whole blood; for clotting time (CT, coagulation time): control 174 s; for lysis of the clot in 45 min (from LI45): whole blood alone about 61 %; for LOT lysis onset time (clot amplitude reduced by 15 %) / LT lysis time (clot reduced/lysed by 90 %) / LI30 lysis index, amplitude of clot after 30 min / LI45 lysis index, amplitude of clot after 45 min / LI60 lysis index, amplitude of clot after 60 min: recalcified human whole blood; for LOT lysis onset time (clot amplitude reduced by 15 %) / LT lysis time (clot reduced/lysed by 90 %): 140 ng/ml TF, 125 ng/ml tPA; for LI30 lysis index, amplitude of clot after 30 min / LI45 lysis index, amplitude of clot after 45 min / LI60 lysis index, amplitude of clot after 60 min: TF + tPA
Description: Five healthy volunteers, men (age range: 25–34 years)) with normal blood cell counts were entered into the study. Healthy volunteers had not taken medication known to affect platelet function and/or coagulation for at least 10 days before blood sampling.
Blood was stored at room temperature for 30 min after venipuncture and then was evaluated by thromboelastometric analyses.
Thromboelastometric measurements were performed using ROTEM system (Tem International GmbH, Manheim, Germany). […] We measured the parameters characterized kinetic of clot formation (clotting time, alpha angle), clot strength (maximal clot firmness; MCF), and fibrinolysis (percentage reduction of MCF, clot lysis time).

[8] = listed as H–Ala–Phe–Lys–EACA–NH2

T2 sequence (P00750 36-562): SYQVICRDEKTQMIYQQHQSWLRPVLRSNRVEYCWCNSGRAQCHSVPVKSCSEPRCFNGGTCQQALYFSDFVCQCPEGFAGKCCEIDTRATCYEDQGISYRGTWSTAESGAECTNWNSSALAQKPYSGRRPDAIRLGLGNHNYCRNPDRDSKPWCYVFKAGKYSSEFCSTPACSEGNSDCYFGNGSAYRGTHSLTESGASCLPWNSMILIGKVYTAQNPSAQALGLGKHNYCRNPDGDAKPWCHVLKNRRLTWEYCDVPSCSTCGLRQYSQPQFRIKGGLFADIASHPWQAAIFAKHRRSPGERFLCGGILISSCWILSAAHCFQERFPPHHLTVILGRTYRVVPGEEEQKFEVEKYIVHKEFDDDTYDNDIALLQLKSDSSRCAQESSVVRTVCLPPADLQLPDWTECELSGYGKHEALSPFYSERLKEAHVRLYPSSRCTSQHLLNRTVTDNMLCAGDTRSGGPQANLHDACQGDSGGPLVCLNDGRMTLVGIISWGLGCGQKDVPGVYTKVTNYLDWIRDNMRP
T1 sequence (P00747 97-580 limits assumed): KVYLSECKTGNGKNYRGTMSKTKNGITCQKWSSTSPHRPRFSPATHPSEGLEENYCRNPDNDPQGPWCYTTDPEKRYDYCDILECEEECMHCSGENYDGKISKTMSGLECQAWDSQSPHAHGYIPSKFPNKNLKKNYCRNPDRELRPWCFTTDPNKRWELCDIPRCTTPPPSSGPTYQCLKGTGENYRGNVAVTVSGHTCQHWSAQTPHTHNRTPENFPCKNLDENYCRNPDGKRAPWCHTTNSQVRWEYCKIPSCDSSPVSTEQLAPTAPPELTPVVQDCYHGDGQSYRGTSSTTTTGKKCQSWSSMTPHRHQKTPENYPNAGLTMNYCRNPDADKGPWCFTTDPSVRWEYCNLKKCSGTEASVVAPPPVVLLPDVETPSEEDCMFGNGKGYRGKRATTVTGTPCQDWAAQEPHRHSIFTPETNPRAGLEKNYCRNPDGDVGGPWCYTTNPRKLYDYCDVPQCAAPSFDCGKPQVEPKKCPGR
T1 sequence (P00747 581-810 limits assumed): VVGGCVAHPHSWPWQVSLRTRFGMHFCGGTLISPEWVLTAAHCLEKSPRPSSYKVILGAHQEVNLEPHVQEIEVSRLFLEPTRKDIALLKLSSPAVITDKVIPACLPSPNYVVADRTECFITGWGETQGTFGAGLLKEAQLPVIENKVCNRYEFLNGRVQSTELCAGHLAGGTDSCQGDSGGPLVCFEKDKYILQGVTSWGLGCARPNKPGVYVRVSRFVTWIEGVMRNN

Structure (SMILES) | IC50 [1] [mM] | IC50 [2] [mM] | IC50 [3] [mM] | IC50 [4] [mM] | IC50 [5] [mM] | IC50 [6] [mM] | clotting time (CT, coagulation time) [7] [s] | lysis of the clot in 45 min (from LI45) [7] [%] | LOT lysis onset time (clot amplitude reduced by 15 %) [7] [s] | LT lysis time (clot reduced/lysed by 90 %) [7] | LI30 lysis index, amplitude of clot after 30 min [7] [%] | LI45 lysis index, amplitude of clot after 45 min [7] [%] | LI60 lysis index, amplitude of clot after 60 min [7] [%] | LOT lysis onset time (clot amplitude reduced by 15 %) [7, 8] [s] | LT lysis time (clot reduced/lysed by 90 %) [7, 8] [min]
CC(=O)N[C@@H](CCCCN)C(=O)NCCCCCN [Ac–Lys–NH–(CH2)5–NH2] | 8 |  |  |  |  |  |  |  |  |  |  |  |  |  | 
NCCCC[C@H](NC(=O)[C@@H](N)Cc1ccccc1)C(=O)NCCCCCC(=O)O [Compound 1, H–Phe–Lys–EACA–OH] (H-Phe-Lys-[Ahx]-OH) |  | > 20 | > 20 | 11.4 ± 0.91 | > 20 |  |  |  |  |  |  |  |  |  | 
C[C@@H](N)C(=O)N[C@@H](Cc1ccccc1)C(=O)N[C@@H](CCCCN)C(=O)NCCCCCC(=O)O [Compound 2, H–D-Ala–Phe–Lys–EACA–OH] (H-[dA]FK[Ahx]-OH) |  | 14.4 ± 1.15 | > 20 | 3.37 ± 0.27 | 3.85 ± 0.31 |  |  |  |  |  |  |  |  |  | 
C[C@H](N)C(=O)N[C@@H](Cc1ccccc1)C(=O)N[C@@H](CCCCN)C(=O)NCCCCCC(=O)O [Compound 3, H–Ala–Phe–Lys–EACA–OH] (H-AFK[Ahx]-OH) |  | 17.6 ± 1.41 | > 20 | 4.82 ± 0.39 | 5.04 ± 0.4 |  |  |  |  |  |  |  |  |  | 
C[C@@H](N)C(=O)N[C@@H](Cc1ccccc1)C(=O)NCCCCCC(=O)O [Compound 4, H–D-Ala–Phe–EACA–OH] (H-[dA]-Phe-[Ahx]-OH) |  | 6.48 ± 0.52 | 3.17 ± 0.25 | 10.9 ± 0.87 | > 20 |  |  |  |  |  |  |  |  |  | 
C[C@H](N)C(=O)N[C@@H](Cc1ccccc1)C(=O)NCCCCCC(=O)O [Compound 5, H–Ala–Phe–EACA–OH] (H-Ala-Phe-[Ahx]-OH) |  | > 20 | 3.38 ± 0.27 | > 20 | 4.77 ± 0.38 |  |  |  |  |  |  |  |  |  | 
NCCCC[C@H](NC(=O)[C@@H](N)Cc1ccccc1)C(=O)NCCCCCC(N)=O [Compound 6, H–Phe–Lys–EACA–NH2] (H-Phe-Lys-[Ahx]-NH2) |  | > 20 | > 20 | 1.43 ± 0.11 | > 20 | > 20 |  |  |  |  |  |  |  |  | 
C[C@@H](N)C(=O)N[C@@H](Cc1ccccc1)C(=O)N[C@@H](CCCCN)C(=O)NCCCCCC(N)=O [Compound 7, H–D-Ala–Phe–Lys–EACA–NH2] (H-[dA]FK[Ahx]-NH2) |  | > 20 | > 20 | 0.02 ± 0.0016 | > 20 | > 20 | 115 | 21 | 2519 ± 176 | 72 ± 4 min | 97 | 79 | 28 |  | 
C[C@H](N)C(=O)N[C@@H](Cc1ccccc1)C(=O)N[C@@H](CCCCN)C(=O)NCCCCCC(N)=O [Compound 8, H–Ala–Phe–Lys–EACA–NH2] (H-AFK[Ahx]-NH2) |  | > 20 | > 20 | 0.13 ± 0.01 | 7.59 ± 0.61 | > 20 | 135 | 14 | 2731 | about 67 min | 99 | 86 | 43 | 2731 ± 160 | 76 ± 6
C[C@@H](N)C(=O)N[C@@H](Cc1ccccc1)C(=O)NCCCCCC(N)=O [Compound 9, H–D-Ala–Phe–EACA–NH2] (H-[dA]-Phe-[Ahx]-NH2) |  | > 20 | > 20 | 1.55 ± 0.12 | > 20 |  |  |  |  |  |  |  |  |  | 
C[C@H](N)C(=O)N[C@@H](Cc1ccccc1)C(=O)NCCCCCC(N)=O [Compound 10, H–Ala–Phe–EACA–NH2] (H-Ala-Phe-[Ahx]-NH2) |  | > 20 | 2.61 ± 0.21 | > 20 | > 20 |  |  |  |  |  |  |  |  |  | 
